These results are taken from US8071548B2, “Method of reducing injury to mammalian cells” (Nono, Inc., priority 2002, dated 2011).

Data set [1] concerns transient unilateral middle cerebral artery occlusion.
In data set [2] the test system is nitrotyrosine. Put plainly: Nitrotyrosine immunostaining (peroxynitrite formation). In kind it is cell-based, mouse. The conditions noted are these: pretreatment, 12 h post-NMDA challenge. The procedure:
Cultures were fixed with warm 4% paraformaldehyde and 4% sucrose in PBS for 20 min, permeabilized with 0.1% Triton X-100 for 10 min at 4° C., and blocked with 10% goat serum in PBS for 1 h at RT. Immunofluorescence was visualized with an inverted Nikon microscope using a 40× oil immersion lens. FITC, rhodamine and Hoechst were visualized using 465-495 excitation and 515-555 nm emission, 510-560 nm excitation and 590 nm emission, and 340 nm excitation and 510 nm emission, respectively. Active caspase 3 was labelled by incubating the cultures with a purified rabbit monoclonal anti-active caspase 3 antibody (1:300; BD PharMingen) and a fluorescein-conjugated goat anti-mouse IgG secondary antibody (1:500; Transduction Labs). Nitrotyrosine was labelled by incubating the cultures with a rabbit polyclonal α-nitrotyrosine primary antibody (1:300; Upstate) and a rhodamine-conjugated goat anti-rabbit IgG secondary antibody (1:500; Transduction Labs). AIF was labelled by incubating the cultures with an AIF antibody (1:200; Santa Cruz, (Zhang et al., 2002)) and a rhodamine-conjugated goat anti-mouse IgG secondary antibody (1:500; Transduction Labs). In some experiments, nuclei were counter-stained with Hoechst 33258 (1:5,000, Transduction Labs).

For data set [3], the system named is NMDARs. In words: NMDA-evoked 45Ca2+ accumulation in cortical cultures. The class given is cell-based, mouse. The conditions noted are these: 50 nM pre-treatment. The procedure: Excitotoxicity and Ca^2+ accumulation measurements were performed identically to the methods described and validated in refs. 4 and 14. I used measurements of propidium iodide fluorescence as an index of cell death, and of radiolabelled ^45Ca^2+ accumulation for Ca^2+ load determinations in sister cultures on the same day. Experimental solutions were as previously described (4). Ca^2+ influx was pharmacologically channeled through distinct pathways as follows: To NMDARs by applying NMDA (×60 min) in the presence of both CNQX (Research Biochemicals Inc.) and nimodipine (Miles Pharmaceuticals), to non-NMDARs by applying kainic acid (×60 min or 24 h) in the presence of both MK-801 (RBI) and nimodipine, and to VSCCs using 50 mM K^+ solution (×60 min) containing 10 mM Ca^2+ and S(−)-Bay K 8644, an L-type channel agonist (300-500 nM; RBI), MK-801 and CNQX. Antagonist concentrations were (in μM): MK-801 10, CNQX 10, nimodipine 2. All three antagonists were added after the 60 min agonist applications for the remainder of all experiments (24 h). A validation of this approach in isolating Ca^2+ influx to the desired pathway in these cortical cultures has been published (4).

In data set [4] the test system is nNOS. Put plainly: NMDA-evoked cGMP formation (surrogate of NO production by nNOS). In kind it is cell-based, mouse. The following applies: 50 nM, pre-treated 1 h, NMDA 0-1000 μM. The procedure:
cGMP determinations were performed 10 min after challenging the cultures with NMDA, kainate, or high-K (FIGS. 4c-e) with the Biotrak cGMP enzyme immunoassay system according to the kit manufacturer's instructions (Amersham). Staining for NADPH diaphorase (FIG. 4b) was done as described in ref 12.

As for Tat-KLSSIESDV [Tat-NR2B9c], in data set [1] (3 nmoles/g i.v. 3 hours after onset of ischemia), the “return to pre-surgery weight for 2 consecutive days, earlier than saline or NR2B-AA treated rats” value is “about 1 week”. Also, in data set [1] (6 days following MCA occlusion), the “Mean latency to retreat from the open to the closed arm in the elevated plus maze” value is listed as “significant difference from Tat-NR2B-AA”. In addition, in data set [1] (MCAO 90 min), the “Mean (SE) core temperature during surgery” value is 37.1 (∀0.1), the “Mean (SE) core temperature subsequent to surgery” value was 37.9 (∀0.2), the “Mean (SE) systolic blood pressure during surgery” value is listed as 112 (∀6.3) and the “Mean (SE) systolic blood pressure prior to surgery” value is recorded as 106 (∀4.3). Moreover, in data set [1] (MCAO 90 min), the “Mean (SE) systolic blood pressure subsequent to surgery” value is 122 (∀5.5). In data set [1] (MCAO 90 min, drug i.v. 3 hours after onset of ischemia), the “Mean (SE) core temperature prior to surgery” value was 36.7 (∀0.2). Also, the “individual weight post-surgery versus controls” value in data set [1] (a number of days including day 56 post-injury) is “significantly heavier”. Besides, in data set [1] (approximately 2 months post-injury), the “Morris water maze acquisition phase” value was “No significant group differences”. Further, in data set [1] (approximately 2 months post-injury, vs combined control), the “Morris water maze memory (time in the target quadrant)” value is “significantly reduced memory deficits”. Also, the “Barnes maze escape latencies, acquisition phase” value in data set [1] (days 36-45) was “consistently shorter mean escape latencies”. Moreover, the “Barnes maze retest (memory)” value in data set [1] (days 36-45, relative to controls) is listed as “performed significantly better”. Further, the “Habituation score for grid crosses in the open field arena” value in data set [1] (difference between day 5 and day 15) was “significant difference from Tat-NR2B-AA and Saline”. In addition, in data set [1] (post-surgery days 5, 9 and 14), the “latency in horizontal ladder task” value is given as “significantly reduced latencies” and the “number of paw slips in horizontal ladder task” value is “significantly fewer paw slips”. In addition, the “total infarct area and volume at 62 days post-surgery” value in data set [1] (relative to TAT-NR2B-AA and saline) is “reduced total infarct area and volume”. Also, the “Mean sensory-motor score over 56 days post-MCAO” value in data set [1] (treated at 3 hours post-MCAO) was “significant long-term functional neuroprotection”. Also, the nitrotyrosine immunoreactivity entry in data set [2] is listed as “reduced nitrotyrosine immunoreactivity”. Moreover, the “uptake of 45Ca2+ produced by applying NMDA” value in data set [3] is recorded as “did not alter”. Also, the “suppression of NMDA-evoked increase in cGMP (average)” value in data set [4] was 39.5±6.7%.
